Here are results for one compound from article PMC6332334, “3-H-[1,2]Dithiole as a New Anti-Trypanosoma cruzi Chemotype: Biological and Mechanism of Action Studies” (Molecules, 2015).

Each structure is given as a SMILES string. Marks after values point to notes of the source that are not given here.

In experiment [1] the test system is T. cruzi cells (Y strain, DTU Tc II). Description: 1H-NMR study of the excreted metabolites. It is filed as cell-based, Trypanosoma cruzi. The method, then:
To gain insight into the changes promoted by the active 3-propylidene[1,2]dithioles 2 and 14 in some biochemical pathways, the metabolites excreted by the parasite using ^1H-NMR spectroscopy were analyzed. Changes in the excreted metabolites by T. cruzi Y strain (DTU Tc II, [24]), when the parasite cells were exposed to a bioactive compound, could be indicative of the modification of the biochemical pathway(s) by the agents. Spectra of the cell-free milieu of treated parasites were compared with those of the untreated T. cruzi-free milieu as the control. We focused mainly on the changes of excreted salts of the carboxylic acids, lactate (Lac), acetate (Ace), pyruvate (Pyr), and succinate (Succ) and the amino acids, alanine (Ala) and glycine (Gly), among the most relevant modified metabolites.
For the ^1H-NMR spectroscopic studies, T. cruzi cells (Y strain, DTU Tc II) treated for 2 days, with each studied compound at concentrations corresponding to 2 × IC50 values (5 mL) were centrifuged at 1500× g for 10 min at 4 °C. The pellet was discarded, and the parasite-free supernatant was stored at −20 °C until use. Before measuring, DMF (0.1 mL, 10 mM) as the internal standard and D2O (0.1 mL) were added to the supernatant (0.3 mL). ^1H-NMR experiments were recorded at 20 °C on a Bruker Advance DPX-400 spectrometer (Bruker), operating at 400.132 MHz, with a 5 mm broadband inverse geometry probe. The acquisition parameters included: 90° pulse (zgpr, advance-version v 1.7.10.2, 1D sequence with f1 presaturation), 128 scans, and spectral width of 14.983 ppm. The acquisition time was 1.3664 s. Signal intensities were calculated by performing appropriate baseline corrections and then integrating the area under each of the resonances using MestRe-C NMR software. Spectra were analyzed using the Topspin 1.3 software package. The spectra were registered with water suppression in 5 mm NMR (Aldrich, St. Louis, MO, USA) sample tubes. The chemical displacements used to identify the respective metabolites were previously confirmed by adding each analyzed metabolite to the studied supernatant, as well as by the study of a control solution with 4 μg/mL of each metabolite in buffer (phosphate, pH = 7.4). Each run was done at least in triplicate and the Student t test was used to analyze the significance of the changes. […]

The subject of experiment [2] is epimastigotes of T. cruzi (Tulahuen 2 strain). Put plainly: Anti-T. cruzi test in vitro (epimastigote growth inhibition). It is filed as cell-based, Trypanosoma cruzi. On the procedure: To evaluate the anti-trypanosomal activity of the synthesized 3H-[1,2]dithioles we used T. cruzi, Tulahuen 2 strain (discrete typing unit, DTU, TcVI [18]) in the epimastigote form. […] To establish the selectivity of the compounds against the parasite, unspecific cytotoxicity against mammalian cells (J774.1 murine macrophages) was studied for the most relevant derivatives. The selectivity indexes (SI) were also determined (Table 1).
We used epimastigotes of the Tulahuen 2 strain (DTU, Tc VI) growing in an axenic milieu (BHI-Tryptose). Cells from a 5–7-day-old culture were inoculated in fresh culture milieu to give an initial concentration of 1 × 10^6 cells/mL. The absorbance at 600 nm of the cells in culture was measured every day. At day 5, the milieu was inoculated with different quantities of the compounds from a stock solution in DMSO (DMSO concentration in the culture milieu never exceeded 0.4%). The control was made in the presence of 0.4% DMSO and in the absence of compounds. […] At day 5, the absorbance of the culture was measured and related to the control. The IC50 value was taken as the concentration of drug needed to reduce the absorbance ratio to 50%.

Experiment [3] deals with membrane sterol biosynthesis in epimastigotes of Y strain of T. cruzi. Put plainly: Inhibition of membrane sterol biosynthesis (qualitative TLC). The note with it: compounds at their IC50, 72 h, 28 °C, compared to control. It is filed as cell-based, Trypanosoma cruzi. The method, then: To do so, we analyzed the accumulation or depletion of some intermediates or final products of this biochemical pathway. Qualitative analyses were performed by thin layer chromatography (TLC).
The parasites, epimastigotes of Y strain of T. cruzi (DTU Tc II), were grown in 6 mL of BHT milieu in culture bottles. […] A negative control was performed with parasites in the absence of compounds. […] The extraction of membrane sterols was performed on completion of the incubation. For this purpose, the content of the culture bottle was centrifuged at 3000 rpm for 10 min, the supernatant was discarded and the pellet was suspended in sodium phosphate buffer solution (6 mL, 0.05 M, pH 7.4). Then it was centrifuged again at 3000 rpm for 10 min and the supernatant was discarded. The resulting pellet was resuspended in a chloroform/methanol (2:1) mixture (5 mL) and the suspension was kept at 4 °C for 12 h. Then, a saturated NaCl solution (5 mL) was added and the mixture extracted once with chloroform (3 mL) and once with hexane (3 mL) with care to avoid taking any aqueous phase. The extracted volume was applied to a silica gel TLC plate. Chromatography was performed eluting with hexane, two runs to identify squalene, and once with hexane/EtOAc (8:2) for ergosterol. […] Also, controls and commercial samples of ergosterol, lanosterol, cholesterol and squalene were run on the TLC plate. […]

For the next experiment, the target named is T1, cruzipain (Trypanosoma cruzi, UniProt P25779).
T1 construct: endogenous in cells; host or cells: T. cruzi epimastigotes, Tulahuen 2 strain
T1 sequence (P25779 123-467): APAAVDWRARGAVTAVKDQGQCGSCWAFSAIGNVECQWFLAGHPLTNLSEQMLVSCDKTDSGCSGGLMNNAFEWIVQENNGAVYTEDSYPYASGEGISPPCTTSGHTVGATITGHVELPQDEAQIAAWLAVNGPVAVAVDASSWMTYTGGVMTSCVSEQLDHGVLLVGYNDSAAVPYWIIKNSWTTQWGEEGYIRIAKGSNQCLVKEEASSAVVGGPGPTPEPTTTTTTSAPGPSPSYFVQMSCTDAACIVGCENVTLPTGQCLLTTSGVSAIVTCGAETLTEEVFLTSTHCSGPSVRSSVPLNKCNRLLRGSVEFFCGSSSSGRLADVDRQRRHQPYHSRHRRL
Description: Inhibition of T. cruzi cruzipain (Z-Phe-Arg-AMC fluorogenic substrate). The note with it: isolated enzyme. It is filed as biochemical.

The mark [4] stands for this setting: IC50 × 2, 2 days, DMF internal standard.

What is called IC50 is the point on the concentration scale where inhibition reaches its midpoint. With `CC(=O)COc1ccc(C2=C/C(=C(\SCC(C)=O)C(C)=O)SS2)cc1` [Derivative 2], in experiment [1] (setting [4]), the “Concentration of excreted Ace” value came to 23.28 ± 0.86, the “Concentration of excreted Ala” value was 17.76 ± 0.61, the “Concentration of excreted Gly” value is 2.11 ± 0.11 ^c and the “Concentration of excreted Lac” value is listed as 8.73 ± 0.37. Also, in experiment [1] (setting [4]), the “Concentration of excreted Pyr” value is given as 8.00 ± 0.35 and the “Concentration of excreted Succ” value is 5.83 ± 0.24. For the same compound, in experiment [1] (IC50 × 2, p < 0.05 Student's t-test), the “Change of excreted metabolites compared to the control” value is “significantly decreased the levels of excreted Gly and Pyr”. The IC50 in experiment [2] (Trypanosoma cruzi, epimastigotes, Tulahuen 2 strain, triplicate, read-out: IC50 against T. cruzi) was determined as 7.7 ± 1.4 µM. For the same compound, the “SI (selectivity index)” value in experiment [2] (macrophages (J774.1) vs T. cruzi epimastigotes) turned out to be 3.1. Further, the “Changes in membrane sterols and intermediates (squalene, ergosterol)” value in experiment [3] was “accumulate squalene and deplete ergosterol”. The compound further displayed an IC50 on cruzipain of 15.5 ± 2.7 µM.
